Reference: the supplement of paper PMC10307832

What was measured:
Test in all cases: relative viability (nuclei count vs DMSO), 5 days (fraction); higher = more cells survive
EKVX = test system: EKVX
Procedure, shortened: (§1)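 Dosing by pin tool came one day after lung cancer cell lines were seeded in 1536-well plates, using either one drug or a fixed anchor-drug dose plus five library-drug doses (not always all listed) in √10 steps. After 5 days, nuclei were counted on 4× images. Relative viability is treated-well nuclei count divided by vehicle-well nuclei count, and values are medians of duplicate plates.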

HARA = test system: HARA
Procedure, shortened: as §1

LK-2 = test system: LK-2
Procedure, shortened: as §1

NCI-H2009 = test system: NCI-H2009
Procedure, shortened: as §1

BEN = test system: BEN
Procedure, shortened: as §1

201T = test system: 201T
Procedure, shortened: as §1

NCI-H661 = test system: NCI-H661
Procedure, shortened: as §1

ABC-1 = test system: ABC-1
Procedure, shortened: as §1

NCI-H2170 = test system: NCI-H2170
Procedure, shortened: as §1

NCI-H1666 = test system: NCI-H1666
Procedure, shortened: as §1

NCI-H441 = test system: NCI-H441
Procedure, shortened: as §1

HCC-366 = test system: HCC-366
Procedure, shortened: as §1

NCI-H838 = test system: NCI-H838
Procedure, shortened: as §1

NCI-H1650 = test system: NCI-H1650
Procedure, shortened: as §1

COR-L23 = test system: COR-L23
Procedure, shortened: as §1

SW 900 = test system: SW 900
Procedure, shortened: as §1

NCI-H1437 = test system: NCI-H1437
Procedure, shortened: as §1

NCI-H727 = test system: NCI-H727
Procedure, shortened: as §1

CAL-12T = test system: CAL-12T
Procedure, shortened: as §1

NCI-H3122 = test system: NCI-H3122
Procedure, shortened: as §1

PC-14 = test system: PC-14
Procedure, shortened: as §1

COR-L 105 = test system: COR-L 105
Procedure, shortened: as §1

LU99A = test system: LU99A
Procedure, shortened: as §1

NCI-H2023 = test system: NCI-H2023
Procedure, shortened: as §1

With COc1cc(N2CCC(C(N)=O)CC2)ccc1Nc1nc(N)c(Cl)c(Nc2ccccc2S(=O)(=O)C(C)C)n1 [HG-5-88-01] + CC(=O)c1c(C)c2cnc(Nc3ccc(N4CCNCC4)cn3)nc2n(C2CCCC2)c1=O [Palbociclib] (partner 0.5 µM) the relative viability (EKVX; first compound 0.04 µM) was 0.507, the relative viability (EKVX; first compound 0.1265 µM) was 0.425 and the relative viability (EKVX; first compound 0.4 µM) was 0.389. The relative viability (EKVX; first compound 4 µM) was 0.293, the relative viability (HARA; first compound 0.04 µM) was 0.234 and the relative viability (HARA; first compound 0.1265 µM) was 0.177. For the same compound, the relative viability (HARA; first compound 0.4 µM) was 0.2, the relative viability (HARA; first compound 1.265 µM) was 0.218 and the relative viability (HARA; first compound 4 µM) was 0.253. The relative viability (LK-2; first compound 0.04 µM) was 0.772, the relative viability (LK-2; first compound 0.1265 µM) was 0.582 and the relative viability (LK-2; first compound 0.4 µM) was 0.71. The relative viability (LK-2; first compound 4 µM) was 0.519, the relative viability (NCI-H2009; first compound 0.04 µM) was 0.187 and the relative viability (NCI-H2009; first compound 0.1265 µM) was 0.281. It also gave a relative viability (NCI-H2009; first compound 0.4 µM) of 0.242, a relative viability (NCI-H2009; first compound 1.265 µM) of 0.216 and a relative viability (NCI-H2009; first compound 4 µM) of 0.224. The relative viability (BEN; first compound 0.04 µM) was 0.451, the relative viability (BEN; first compound 0.1265 µM) was 0.461 and the relative viability (BEN; first compound 0.4 µM) was 0.409. The relative viability (BEN; first compound 1.265 µM) was 0.465, the relative viability (BEN; first compound 4 µM) was 0.411 and the relative viability (201T; first compound 0.04 µM) was 0.368. For the same compound, the relative viability (201T; first compound 0.1265 µM) was 0.343, the relative viability (201T; first compound 1.265 µM) was 0.347 and the relative viability (201T; first compound 4 µM) was 0.36. For the same compound, the relative viability (NCI-H661; first compound 0.04 µM) was 0.384, the relative viability (NCI-H661; first compound 0.1265 µM) was 0.417 and the relative viability (NCI-H661; first compound 0.4 µM) was 0.416. For the same compound, the relative viability (NCI-H661; first compound 1.265 µM) was 0.359, the relative viability (NCI-H661; first compound 4 µM) was 0.426 and the relative viability (ABC-1; first compound 0.04 µM) was 0.667. For the same compound, the relative viability (ABC-1; first compound 0.1265 µM) was 0.664, the relative viability (ABC-1; first compound 0.4 µM) was 0.764 and the relative viability (ABC-1; first compound 1.265 µM) was 0.583. It also gave a relative viability (ABC-1; first compound 4 µM) of 0.626, a relative viability (NCI-H2170; first compound 0.04 µM) of 0.366 and a relative viability (NCI-H2170; first compound 0.1265 µM) of 0.386. For the same compound, the relative viability (NCI-H2170; first compound 0.4 µM) was 0.407, the relative viability (NCI-H2170; first compound 1.265 µM) was 0.361 and the relative viability (NCI-H2170; first compound 4 µM) was 0.457. The relative viability (NCI-H1666; first compound 0.04 µM) was 0.636, the relative viability (NCI-H1666; first compound 0.1265 µM) was 0.663 and the relative viability (NCI-H1666; first compound 0.4 µM) was 0.623. It also gave a relative viability (NCI-H1666; first compound 1.265 µM) of 0.661, a relative viability (NCI-H1666; first compound 4 µM) of 0.623 and a relative viability (NCI-H441; first compound 0.04 µM) of 0.209. It also gave a relative viability (NCI-H441; first compound 0.1265 µM) of 0.202, a relative viability (NCI-H441; first compound 0.4 µM) of 0.146 and a relative viability (NCI-H441; first compound 1.265 µM) of 0.152. The relative viability (NCI-H441; first compound 4 µM) was 0.172, the relative viability (HCC-366; first compound 0.04 µM) was 0.397 and the relative viability (HCC-366; first compound 0.1265 µM) was 0.41. It also gave a relative viability (HCC-366; first compound 0.4 µM) of 0.356, a relative viability (HCC-366; first compound 1.265 µM) of 0.41 and a relative viability (HCC-366; first compound 4 µM) of 0.465. For the same compound, the relative viability (NCI-H838; first compound 0.04 µM) was 0.189, the relative viability (NCI-H838; first compound 0.1265 µM) was 0.207 and the relative viability (NCI-H838; first compound 0.4 µM) was 0.173. For the same compound, the relative viability (NCI-H838; first compound 1.265 µM) was 0.177, the relative viability (NCI-H838; first compound 4 µM) was 0.168 and the relative viability (NCI-H1650; first compound 0.04 µM) was 0.342. For the same compound, the relative viability (NCI-H1650; first compound 0.1265 µM) was 0.391, the relative viability (NCI-H1650; first compound 0.4 µM) was 0.327 and the relative viability (NCI-H1650; first compound 1.265 µM) was 0.298. It also gave a relative viability (NCI-H1650; first compound 4 µM) of 0.223, a relative viability (COR-L23; first compound 0.04 µM) of 0.383 and a relative viability (COR-L23; first compound 0.1265 µM) of 0.225. The relative viability (COR-L23; first compound 0.4 µM) was 0.266, the relative viability (COR-L23; first compound 1.265 µM) was 0.235 and the relative viability (COR-L23; first compound 4 µM) was 0.26. For the same compound, the relative viability (SW 900; first compound 0.04 µM) was 0.54, the relative viability (SW 900; first compound 0.1265 µM) was 0.584 and the relative viability (SW 900; first compound 0.4 µM) was 0.473. It also gave a relative viability (SW 900; first compound 1.265 µM) of 0.509, a relative viability (SW 900; first compound 4 µM) of 0.567 and a relative viability (NCI-H1437; first compound 0.04 µM) of 0.372. The relative viability (NCI-H1437; first compound 0.1265 µM) was 0.299, the relative viability (NCI-H1437; first compound 0.4 µM) was 0.271 and the relative viability (NCI-H1437; first compound 1.265 µM) was 0.28. It also gave a relative viability (NCI-H1437; first compound 4 µM) of 0.243, a relative viability (NCI-H727; first compound 0.04 µM) of 0.677 and a relative viability (NCI-H727; first compound 0.1265 µM) of 0.629. For the same compound, the relative viability (NCI-H727; first compound 0.4 µM) was 0.66, the relative viability (NCI-H727; first compound 4 µM) was 0.61 and the relative viability (CAL-12T; first compound 0.04 µM) was 0.509. The relative viability (CAL-12T; first compound 0.1265 µM) was 0.552, the relative viability (CAL-12T; first compound 0.4 µM) was 0.405 and the relative viability (CAL-12T; first compound 1.265 µM) was 0.214. It also gave a relative viability (CAL-12T; first compound 4 µM) of 0.211, a relative viability (NCI-H3122; first compound 0.04 µM) of 0.161 and a relative viability (NCI-H3122; first compound 0.1265 µM) of 0.138. It also gave a relative viability (NCI-H3122; first compound 0.4 µM) of 0.11, a relative viability (NCI-H3122; first compound 1.265 µM) of 0.111 and a relative viability (NCI-H3122; first compound 4 µM) of 0.0988. The relative viability (PC-14; first compound 0.04 µM) was 0.545, the relative viability (PC-14; first compound 0.1265 µM) was 0.611 and the relative viability (PC-14; first compound 0.4 µM) was 0.464. For the same compound, the relative viability (PC-14; first compound 1.265 µM) was 0.221, the relative viability (PC-14; first compound 4 µM) was 0.0845 and the relative viability (COR-L 105; first compound 0.04 µM) was 0.398. The relative viability (COR-L 105; first compound 0.1265 µM) was 0.419, the relative viability (COR-L 105; first compound 0.4 µM) was 0.459 and the relative viability (COR-L 105; first compound 1.265 µM) was 0.403. The relative viability (COR-L 105; first compound 4 µM) was 0.394, the relative viability (LU99A; first compound 0.04 µM) was 0.434 and the relative viability (LU99A; first compound 0.1265 µM) was 0.39. For the same compound, the relative viability (LU99A; first compound 0.4 µM) was 0.384, the relative viability (LU99A; first compound 1.265 µM) was 0.32 and the relative viability (LU99A; first compound 4 µM) was 0.305. It also gave a relative viability (NCI-H2023; first compound 0.04 µM) of 0.343, a relative viability (NCI-H2023; first compound 0.1265 µM) of 0.355 and a relative viability (NCI-H2023; first compound 0.4 µM) of 0.287. It also gave a relative viability (NCI-H2023; first compound 1.265 µM) of 0.259 and a relative viability (NCI-H2023; first compound 4 µM) of 0.212.
